Reference: ChEMBL document CHEMBL1201862, “PubChem BioAssay data set” (2004)
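Values below derive from 48-hour exposures of cells grown in 96-well plates, with endpoints linearly interpolated between the two concentrations bracketing the appropriate inhibition level. GI50 = concentration required for 50% inhibition of growth.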 The source made the active and inactive calls. No stated cut-off is given here; in the data, active = GI50 up to about 1.1 µM and inactive = higher.

Columns and labels:
Experiment in all cases: NCI-60 cell line screen, 48 h
[1] = system: 786-0
[2] = system: SNB-19
[3] = system: M14
[4] = system: SK-MEL-5
[5] = system: CCRF-CEM
[6] = system: OVCAR-3
[7] = system: TK-10
[8] = system: HL-60
[9] = system: K562
[10] = system: HT-29
[11] = system: MOLT-4
[12] = system: SK-OV-3
[13] = system: SF-268
[14] = system: HOP-62
[15] = system: UACC-257
[16] = system: SK-MEL-2
[17] = system: SF-539
[18] = system: RXF 393
[19] = system: CAKI-1

Measured: GI50

CCCCCCCCCCCCCC/C(C(=O)OC)=C(/O)C(=O)OCC
inactive: [1] 19.7 µM | [2] 40.9 µM | [3] 20.2 µM | [4] > 100 µM | [5] 42.5 µM | [6] > 100 µM | [7] 47.3 µM | [8] > 100 µM | [9] 27 µM | [10] 36.4 µM | [11] 37.6 µM | [12] 35.3 µM | [13] 25.8 µM | [14] 61.2 µM | [15] 63.5 µM | [16] 16.6 µM | [17] > 100 µM | [18] 99.5 µM | [19] 31.4 µM

CC(C)c1cccc(=O)c(O)c1 [HINOKITIOL]
inactive: [1] 5.22 µM | [2] 10.9 µM | [3] 8.49 µM | [4] 24.5 µM | [5] 2.79 µM | [6] 4.05 µM | [7] 58.1 µM | [8] 2.49 µM | [9] 6.38 µM | [10] 4.27 µM | [11] 3.18 µM | [12] 49.4 µM | [13] 6.37 µM | [14] 10.9 µM | [15] 4.1 µM | [16] 12.1 µM | [17] 5.31 µM | [18] 25.4 µM | [19] 16.1 µM

NC1=NC2=C(CCCC2)C(c2cccs2)S1 (centres undefined)
inactive: [1] 84.5 µM | [2] > 100 µM | [3] > 100 µM | [4] 54.5 µM | [5] 55 µM | [6] 59.8 µM | [7] > 100 µM | [8] 8.73 µM | [9] 56.9 µM | [10] > 100 µM | [11] 36.8 µM | [12] > 100 µM | [13] 95.1 µM | [14] > 100 µM | [15] 49.7 µM | [16] > 100 µM | [17] > 100 µM | [18] 38.5 µM | [19] > 100 µM

CC1=C(c2cc(C(=O)Nc3ccc(Cl)cc3)nc(S)n2)Sc2ccccc2N1
inactive: [1] > 100 µM | [2] > 100 µM | [3] > 100 µM | [4] > 100 µM | [5] > 100 µM | [6] > 100 µM | [7] > 100 µM | [8] > 100 µM | [9] > 100 µM | [10] > 100 µM | [12] > 100 µM | [13] > 100 µM | [14] > 100 µM | [15] > 100 µM | [16] > 100 µM | [17] > 100 µM | [18] > 100 µM | [19] > 100 µM

CCOC(=O)c1ccc(/N=N\c2ccc(N(CCC#N)CCC#N)cc2C)cc1
inactive: [1] 35.6 µM | [2] > 100 µM | [3] > 100 µM | [4] > 100 µM | [5] > 100 µM | [6] > 100 µM | [7] > 100 µM | [8] > 100 µM | [9] > 100 µM | [10] > 100 µM | [11] > 100 µM | [12] > 100 µM | [14] > 100 µM | [15] > 100 µM | [16] > 100 µM | [17] 72.9 µM | [18] > 100 µM | [19] > 100 µM

O=C1NC2C(CCO)CC=C[C@H]2c2cc3c(cc21)OCO3 (some centres undefined)
inactive: [1] > 100 µM | [2] > 100 µM | [3] > 100 µM | [5] > 100 µM | [6] > 100 µM | [7] > 100 µM | [8] > 100 µM | [9] > 100 µM | [10] > 100 µM | [11] > 100 µM | [12] > 100 µM | [13] > 100 µM | [14] > 100 µM | [15] > 100 µM | [17] > 100 µM | [18] > 100 µM
